This is an account of results in US20060008880A1, “Mouse trace amine associated receptors and polypeptides” (priority 2004, published 2006).

Some results are limits rather than exact numbers.

The target in the first experiment is Mouse TAAR 1 (Mus musculus, UniProt Q923Y8). The experiment can be described thus: cAMP Biotrak EIA functional assay in HEK293 cells stably expressing mTAAR1.
Chain of Mouse TAAR 1 (Q923Y8 whole entry): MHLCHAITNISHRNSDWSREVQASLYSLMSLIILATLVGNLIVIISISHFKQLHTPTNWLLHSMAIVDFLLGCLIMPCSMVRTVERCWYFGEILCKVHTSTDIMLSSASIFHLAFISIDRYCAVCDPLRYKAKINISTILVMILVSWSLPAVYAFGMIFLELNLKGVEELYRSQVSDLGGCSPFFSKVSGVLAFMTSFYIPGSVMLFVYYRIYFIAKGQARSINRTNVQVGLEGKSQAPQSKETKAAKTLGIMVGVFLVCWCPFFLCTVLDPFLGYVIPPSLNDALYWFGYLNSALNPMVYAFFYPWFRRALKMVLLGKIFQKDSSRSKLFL
Settings: not given
In kind it is cell-based. The text has this:
Stable cell lines: For the generation of stably transfected cell lines HEK cells were transfected with the pIRES-NEO2 expression vectors of the respective TAARs by using Lipofectamin 2000 transfection reagent and Optimem 1 reduced serum medium with Glutamax (Invitrogen Cat. # 51985-026) following the recommendations given in the Lipofectamine 2000 datasheet. After 24 hr post transfection cells were trypsinated and transferred into 90 mm tissue culture dishes (Nunc) at dilutions between 1:10-1:300 in culture medium supplemented with 1 mg/ml G418 which was renewed on a daily basis. […] Picking of clones was performed by detaching the entire clone from the culture dish using a 1 ml Gilson pipette, trypsinizing the clone in a 1.5 ml Eppendorf cup using Trypsin/EDTA (Invitrogen Cat. # 25300-062) and plating them into a 48 well dish, from where the cells were subsequently expanded by transferring them to increasing culture surface areas (48 well—12 well—60 mm etc.). Whenever cells were transferred to a new plate they were carefully trypsinized. As soon as single clones were selected, the concentration of G418 in the culture medium was reduced to 500 µg/ml.
For `NCCc1c[nH]c2ccc(O)cc12` [Serotonin, 5-HT, Serotonin], the EC50 (in general, the concentration giving half of the maximal effect) was greater than 50 µM.

The compound `NCCc1c[nH]c2ccccc12` [TRY, tryptamine] yielded an EC50 of 1.99 µM.

`NCCc1ccccc1` [β-PEA, β-phenylethylamine]: the EC50 stood at 0.66 µM.

The same experiment, now with this note: maximal response as percentage of the maximal cAMP levels induced by p-TYR; HEK293 cells stably expressing mTAAR1.
For the compound `NCC(O)c1ccc(O)cc1` (stereo not drawn) [OCT, octopamine], the “Max (96)” value is on record as 100 percentage.

Still in this experiment, the particulars now being: read-out: EC50.
As to `NCCc1ccc(O)c(O)c1` [Dopamine, dopamine], the EC50 is 11.8 µM.

For the compound `NCCc1c[nH]cn1` [Histamine, histamine], the EC50 was greater than 50 µM.

Regarding `CNCCc1ccccc1` [N-methyl-β-PEA], the EC50 stood at 0.15 µM.

As for `NC[C@H](O)c1ccc(O)c(O)c1` [Norepinephrine, norepinephrine], the EC50 was greater than 50 µM.

For `NCC(O)c1ccc(O)cc1` (stereo not drawn) [OCT, octopamine], the EC50 stood at 19.7 µM.
